Results from ChEMBL document CHEMBL3885861, “Open TG-GATES”.

Organism: Rattus norvegicus
Experiment: Open TG-GATES - Regimen: Single
Format: toxicity, organism-based, Sprague-Dawley
Design: regimen Single, gender Male, age 6 weeks
Conditions: in vivo, po, route gavage; for A/G / ALP / ALT / AST / BUN / CRE / Ca / Cl / DBIL / GLC / IP / K / LDH / Na / PL / RALB / TBIL / TC / TG / TP / gamma-GTP: tissue Plasma; for APTT / Bas / Eos / Fbg / Hb / Ht / Lym / MCH / MCHC / MCV / Mono / Neu / PT / Plat / RBC / Ret / WBC: tissue Blood; for KIDNEY_L / KIDNEY_R / KIDNEY_TOTAL: tissue Kidney; for LIVER: tissue Liver
[1] = 30 mg/kg, 9 h, dose level Middle
[2] = 30 mg/kg, 24 h, dose level Middle
[3] = 100 mg/kg, 3 h, dose level High

O=C1CN(/N=C/c2ccc([N+](=O)[O-])o2)C(=O)N1 [NITROFURANTOIN]
A/G [1]: 1.6
ALP [1]: 825.2 IU/L
ALT [1]: 33.2 IU/L
AST [1]: 62 IU/L
BUN [1]: 10.4 mg/dL
CRE [1]: 0.3 mg/dL
Ca [1]: 10.4 mg/dL
Cl [1]: 101.8 meq/L
DBIL [1]: 0.072 mg/dL
GLC [1]: 199 mg/dL
IP [1]: 9.7 mg/dL
K [1]: 3.8 meq/L
LDH [1]: 197.6 IU/L
Na [1]: 139.6 meq/L
PL [1]: 130.2 mg/dL
RALB [1]: 3.3 g/dL
TBIL [1]: 0.1 mg/dL
TC [1]: 67.4 mg/dL
TG [1]: 57.4 mg/dL
TP [1]: 5.4 g/dL
gamma-GTP [1]: 0.4 IU/L
TERMINAL_BW [2]: 231.7 g
APTT [2]: 18.6 s
Bas [2]: 0%
Eos [2]: 1%
Fbg [2]: 219.2 mg/dL
Hb [2]: 13.3 g/dL
Ht [2]: 37.8%
Lym [2]: 77.8%
MCH [2]: 21.9 pg
MCHC [2]: 35.1%
MCV [2]: 62.4 fL
Mono [2]: 2.4%
Neu [2]: 17.4%
PT [2]: 12.7 s
Plat [2]: 115.4 x10_4/uL
RBC [2]: 604.6 x10_4/ul
Ret [2]: 7.1%
WBC [2]: 92 x10_2/uL
KIDNEY_L [2]: 1.1 g
KIDNEY_R [2]: 1.1 g
KIDNEY_TOTAL [2]: 2.1 g
LIVER [2]: 11.1 g
A/G [2]: 1.6
ALP [2]: 1093.6 IU/L
ALT [2]: 39 IU/L
AST [2]: 67.8 IU/L
BUN [2]: 13.6 mg/dL
CRE [2]: 0.4 mg/dL
Ca [2]: 10.7 mg/dL
Cl [2]: 102.2 meq/L
DBIL [2]: 0.1 mg/dL
GLC [2]: 211.8 mg/dL
IP [2]: 7.6 mg/dL
K [2]: 4.1 meq/L
LDH [2]: 176 IU/L
Na [2]: 139.8 meq/L
PL [2]: 140.8 mg/dL
RALB [2]: 3.3 g/dL
TBIL [2]: 0.2 mg/dL
TC [2]: 69.4 mg/dL
TG [2]: 115 mg/dL
TP [2]: 5.4 g/dL
gamma-GTP [2]: 1 IU/L
TERMINAL_BW [3]: 220.5 g
TERMINAL_BW (100 mg/kg, 3 h, dose level Low): 205.8 g
APTT [3]: 19.6 s
Bas [3]: 0%
Eos [3]: 1%
Fbg [3]: 215.6 mg/dL
Hb [3]: 13.1 g/dL
Ht [3]: 37.2%
Lym [3]: 78.6%
MCH [3]: 21.8 pg
MCHC [3]: 35.1%
MCV [3]: 62.1 fL
Mono [3]: 2.6%
Neu [3]: 16.4%
PT [3]: 12.8 s
Plat [3]: 113 x10_4/uL
RBC [3]: 599.8 x10_4/ul
Ret [3]: 8%
WBC [3]: 80.6 x10_2/uL
APTT (100 mg/kg, 3 h, dose level Low): 16.1 s
Eos (100 mg/kg, 3 h, dose level Low): 1.2%
Fbg (100 mg/kg, 3 h, dose level Low): 227.8 mg/dL
Hb (100 mg/kg, 3 h, dose level Low): 13.4 g/dL
Ht (100 mg/kg, 3 h, dose level Low): 40.5%
Lym (100 mg/kg, 3 h, dose level Low): 75.6%
MCH (100 mg/kg, 3 h, dose level Low): 21.4 pg
MCHC (100 mg/kg, 3 h, dose level Low): 33%
MCV (100 mg/kg, 3 h, dose level Low): 64.7 fL
Mono (100 mg/kg, 3 h, dose level Low): 6.8%
PT (100 mg/kg, 3 h, dose level Low): 11.9 s
Plat (100 mg/kg, 3 h, dose level Low): 124.7 x10_4/uL
RBC (100 mg/kg, 3 h, dose level Low): 625.4 x10_4/ul
Ret (100 mg/kg, 3 h, dose level Low): 7.7%
WBC (100 mg/kg, 3 h, dose level Low): 78.5 x10_2/uL
KIDNEY_L [3]: 1 g
KIDNEY_R [3]: 1 g
KIDNEY_TOTAL [3]: 2 g
KIDNEY_L (100 mg/kg, 3 h, dose level Low): 0.9 g
KIDNEY_TOTAL (100 mg/kg, 3 h, dose level Low): 1.9 g
LIVER [3]: 10 g
LIVER (100 mg/kg, 3 h, dose level Low): 8.6 g
A/G [3]: 1.6
ALP [3]: 909.6 IU/L
ALT [3]: 38 IU/L
AST [3]: 69.8 IU/L
BUN [3]: 12 mg/dL
CRE [3]: 0.4 mg/dL
Ca [3]: 10.7 mg/dL
Cl [3]: 101.6 meq/L
DBIL [3]: 0.068 mg/dL
GLC [3]: 183.2 mg/dL
IP [3]: 9.2 mg/dL
K [3]: 4 meq/L
LDH [3]: 229.4 IU/L
Na [3]: 140.4 meq/L
PL [3]: 137.6 mg/dL
RALB [3]: 3.4 g/dL
TBIL [3]: 0.1 mg/dL
TC [3]: 77.2 mg/dL
TG [3]: 66.2 mg/dL
TP [3]: 5.5 g/dL
gamma-GTP [3]: 0.8 IU/L
A/G (100 mg/kg, 3 h, dose level Low): 2.4
ALP (100 mg/kg, 3 h, dose level Low): 1349.8 IU/L
ALT (100 mg/kg, 3 h, dose level Low): 39.2 IU/L
AST (100 mg/kg, 3 h, dose level Low): 64.6 IU/L
BUN (100 mg/kg, 3 h, dose level Low): 11.2 mg/dL
CRE (100 mg/kg, 3 h, dose level Low): 0.3 mg/dL
Ca (100 mg/kg, 3 h, dose level Low): 11.1 mg/dL
Cl (100 mg/kg, 3 h, dose level Low): 104.2 meq/L
DBIL (100 mg/kg, 3 h, dose level Low): 0.006 mg/dL
GLC (100 mg/kg, 3 h, dose level Low): 187.6 mg/dL
IP (100 mg/kg, 3 h, dose level Low): 9.6 mg/dL
K (100 mg/kg, 3 h, dose level Low): 4.3 meq/L
LDH (100 mg/kg, 3 h, dose level Low): 91.8 IU/L
Na (100 mg/kg, 3 h, dose level Low): 138.8 meq/L
PL (100 mg/kg, 3 h, dose level Low): 144 mg/dL
RALB (100 mg/kg, 3 h, dose level Low): 4 g/dL
TBIL (100 mg/kg, 3 h, dose level Low): 0.032 mg/dL
TC (100 mg/kg, 3 h, dose level Low): 91.2 mg/dL
TG (100 mg/kg, 3 h, dose level Low): 63.2 mg/dL
TP (100 mg/kg, 3 h, dose level Low): 5.7 g/dL
gamma-GTP (100 mg/kg, 3 h, dose level Low): 1 IU/L
TERMINAL_BW (100 mg/kg, 6 h, dose level High): 216.2 g
